What was measured:
tubulin = test: HTS-Tubulin Polymerization Assay Kit, tubulin polymerization in vitro; assay type: biochemical; details: 1 μM solution, 10 μL + 100 μL 4 mg/ml tubulin, 37° C., 405 nm; compared with the PBS buffer (FIG. 6)
Procedure: According to the instruction of kit, pre-warm the 96-well plate to 37° C. for 30 min prior to starting the assay. At the same time, the spectrophotometer (SpectraMax, Molecular Devices, USA) was set as follow: wavelength, 405 nm; temperature, 37° C.; Kinetic, 31 cycles of 1 reading per minute. Make cold G-PEM buffer (990 μL General Tubulin Buffer+10 μL GTP Stock) and keep it on ice. […] Immediately place the plate into the spectrophotometer and start recording using the kinetic setup described above. […] Nocodazole, the tubulin polymerization inhibitor, was set as a negative control. The metabolite Cys-3AA-MDC was prepared by reaction of 3AA-MDC with cysteine under the base DIEA in CH2Cl2. LC-MS (M+H^+) calc.: 964.5. found: 964.2. Rt: 12.97 min. The metabolite Lys-MCC-MDC was prepared by reaction of SMCC-MDC with lysine under the base DIEA in DMF. LC-MS (M+H^+) calc.: 1103.7. found: 1103.2. Rt: 13.00 and 13.18 min.

[1] = test system: human acute lymphoblastic leukemia line C.E.M.; details: cited from earlier work
[2] = test system: Lewis lung carcinoma and B-16 melanocarcinoma solid murine tumor models; details: mouse, in vivo; cited from earlier work
[3] = test system: multiple cancer cell lines; details: cited from earlier work

| SMILES | inhibition of tubulin polymerization (tubulin) | further results |
| --- | --- | --- |
| CN[C@@H](C)C(=O)OC1CC(=O)N(C)c2cc(cc(OC)c2Cl)C/C(C)=C/C=C/C(OC)C2(O)CC(OC(=O)N2)C(C)C2OC12C (stereo partly drawn) [Cys-3AA-MDC] | more significantly inhibited the tubulin polymerization |  |
| COc1cc2cc(c1Cl)N(C)C(=O)C[C@H](OC(=O)[C@H](C)N(C)C(C)=O)[C@]1(C)O[C@H]1[C@H](C)[C@@H]1C[C@@](O)(NC(=O)O1)[C@H](OC)/C=C/C=C(\C)C2 [Maytansine] |  | inhibitory concentration, as low as [1]: ≥ 10^−7 μg/mL; inhibitory activity against tumors [2]: significant inhibitory activity |
| COc1cc2cc(c1Cl)N(C)C(=O)C[C@H](OC(=O)[C@H](C)N(C)C(=O)CCSC1CC(=O)N(CC3CCC(C(=O)NCCCC[C@H](N)C(=O)O)CC3)C1=O)[C@]1(C)O[C@H]1[C@H](C)[C@@H]1C[C@@](O)(NC(=O)O1)[C@H](OC)/C=C/C=C(\C)C2 (stereo partly drawn) [Lys-mcc-MDC] | more significantly inhibited the tubulin polymerization |  |
| COc1cc2cc(c1Cl)N(C)C(=O)C[C@H](OC(=O)[C@H](C)N(C)C(=O)CCCCCN1C(=O)C=CC1=O)[C@]1(C)OC1[C@H](C)[C@@H]1C[C@@](O)(NC(=O)O1)[C@H](OC)/C=C/C=C(\C)C2 (stereo partly drawn) [3AA-MDC, N2′-deacetyl-N2′-(6-maleimido-1-oxo-hexyl)maytansine] | more significantly inhibited the tubulin polymerization |  |
| COc1cc2cc(c1Cl)N(C)C(=O)C[C@H](OC(=O)C(C)C)[C@]1(C)O[C@@H]1[C@H](C)[C@@H]1C[C@@](O)(NC(=O)O1)[C@H](OC)/C=C/C=C(\C)C2 [Ansamitocin P3] |  | efficacy against cancer cell lines [3]: effective against multiple cancer cell lines |
